From article PMC4414177, “A novel orally active water-soluble inhibitor of human glutathione transferase exerts a potent and selective antitumor activity against human melanoma xenografts” (Oncotarget, 2015) come the findings set out here.

In brackets after ≈: the same amount, converted by molar mass.

A short description of data set [1]: Solubility limits in aqueous buffers. The class given is physicochemical. As to conditions: thermodynamic from solid. An excerpt:
The solutions obtained were separated from any undissolved matter by centrifugation at 15,000 g and evaluated for drug concentration by recording compound absorbance at 425 nm, using molar extinction coefficients calculated at the same wavelength with diluted standard solutions, prepared in the same matrices.

The nature of data set [2]: Spontaneous reactivity with GSH (UV-visible spectra). The class given is physicochemical. As to conditions: 40 μM compound, 1 mM GSH, 0.1 M potassium phosphate buffer pH 6.5, 25°C, within 1 h. On the procedure: The spontaneous reactivity of the NBDs with GSH was determined at 25°C by recording the UV-visible spectrum of each compound (40 μM) incubated with 1 mM GSH, in 0.1 M potassium phosphate buffer, pH 6.5, at different time points.

Data set [3] addresses T1, GSTP1-1 (Homo sapiens, UniProt P09211).
T1 construct: made in house; host or cells: Escherichia coli
The data set can be described thus: Sigma complex formation in the GSTP1-1 active site. The class given is biochemical. As to conditions: 40 μM compound, 40 μM GSTP1-1, 1 mM GSH, pH 6.5, 25°C. As for the experimental part: (§1) Human GSTM2-2, GSTP1-1, JNK1a2 and TRAF2 were expressed in Escherichia coli and purified as previously described; protein concentration was determined using the Lowry colorimetric assay. Unless specified otherwise, all chemicals were purchased from Sigma-Aldrich S.r.l. (Milan, Italy).
The ability of GSTP1-1 to stabilize the intermediate σ-complex formed between GSH and the compounds, was evaluated by recording the spectrum of each molecule (40 μM), in 0.1 M potassium phosphate buffer, pH 6.5, before and after the addition of a stoichiometric amount of GSTP1-1 and 1 mM GSH.

Data set [4] addresses T2, GSTM2-2 (Homo sapiens, UniProt P28161).
T2 construct: made in house; host or cells: Escherichia coli
T2 sequence (P28161 1-218): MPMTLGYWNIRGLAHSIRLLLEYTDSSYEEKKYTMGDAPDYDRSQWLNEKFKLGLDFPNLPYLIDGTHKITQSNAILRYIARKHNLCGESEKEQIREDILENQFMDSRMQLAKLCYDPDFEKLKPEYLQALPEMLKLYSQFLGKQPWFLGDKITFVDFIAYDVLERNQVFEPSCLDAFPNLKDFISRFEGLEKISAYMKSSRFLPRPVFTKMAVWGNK
Briefly: Inhibition of GSTM2-2 conjugation activity. The class given is biochemical. As to conditions: GSTM2-2 5 nM. As for the experimental part:
as §1
GST activity was determined spectrophotometrically at 340 nm (ε = 9,600 M^−1 cm^−1), as previously reported. Inhibition experiments were performed by measuring GSTP1-1 (20 nM) or GSTM2-2 (5 nM) activities in the presence of various amounts of the selected NBD derivative (from 0.1 to 20 μM with GSTP1-1, and from 0.005 and 1 μM with GSTM2-2). Fifty percent inhibitory concentration (IC50) values were calculated by fitting the data to Equation 1, where ν is the percentage of the saturated binding sites; [P]t is the total GST concentration and [L]t is the total inhibitor concentration, assuming a 1:1 interaction stoichiometry between the inhibitor and one GST subunit, as well as that the binding sites are equal and independent.

Data set [5] has as its target T1, GSTP1-1. The data set can be described thus: Inhibition of GSTP1-1 conjugation activity. The class given is biochemical. As for the experimental part:
as §1
GST activity was determined spectrophotometrically at 340 nm (ε = 9,600 M^−1 cm^−1), as previously reported. […] Fifty percent inhibitory concentration (IC50) values were calculated by fitting the data to Equation 1, where ν is the percentage of the saturated binding sites; [P]t is the total GST concentration and [L]t is the total inhibitor concentration, assuming a 1:1 interaction stoichiometry between the inhibitor and one GST subunit, as well as that the binding sites are equal and independent.

The test system of data set [6] is SK23-MEL. Briefly: Cell growth inhibition, SRB assay. The class given is cell-based. As to conditions: Homo sapiens, 48 h. On the procedure:
(§2) The IC50 values for each compound were then evaluated by the SRB assay.

For data set [7], the system named is MALME-3M. Briefly: Cell growth inhibition, SRB assay. The class given is cell-based. As to conditions: Homo sapiens, 48 h. As for the experimental part: as §2
A general note: Sulforhodamine B stains cellular protein and so reports cell mass.

The subject of data set [8] is G-361. Briefly: Cell growth inhibition, SRB assay. The class given is cell-based. As to conditions: Homo sapiens, G-361, 48 h. On the procedure: as §2
Data set [9] deals with IST-MEL-1. The data set can be described thus: Cell growth inhibition, SRB assay. The class given is cell-based. As to conditions: Homo sapiens, IST-MEL-1, 48 h. On the procedure: as §2
Data set [10] has as its system A375. Briefly: Cell growth inhibition, SRB assay. The class given is cell-based. As to conditions: Homo sapiens, A-375, A375, 48 h. On the procedure: as §2
Data set [11] deals with A375 cells. Briefly: Cell cycle analysis (PI, flow cytometry). The class given is cell-based, human. As to conditions: A375, pretreatment with SP600125 20 μM, 24 hrs exposure to MC3181. On the procedure:
A375 and SK23-MEL cells, were fixed with 70% ethanol overnight, stained with PI staining buffer ([…] and 1% Triton X-100) and analyzed by a FACSCalibur (BD Bioscence, San Jose, CA, USA). The percentage of early apoptotic, late apoptotic, and necrotic cells was determined by simultaneous staining of cells with PI (2 μg/ml) and Annexin V-FITC (0.5 μg/ml) (Sigma Aldrich), according to manufacturer's protocol. Flow cytometric data were analyzed by the FlowJo 8.8.6 software (Tree Stare, Inc, Ashland, OR, USA).
Background: A flow cytometer gives signals particle by particle.

The subject of data set [12] is A375 cells. The data set can be described thus: Caspase-3 activity in cell lysates. The class given is cell-based, human. As to conditions: A375, pretreatment with SP600125 20 μM, 24 hrs exposure to MC3181. As for the experimental part:
Apoptosis was confirmed by measuring caspase-3 activity, at 25°C, in total cell lysates, using the model fluorescent peptide substrate N-Acetyl-Asp-Glu-Val-Asp-7-amido-4-trifluoromethylcoumarin (Ac-DEVD-AFC). […] Caspase activity was expressed as change in fluorescence per min, per 10^6 cells.

Data set [13] relates to A375 human melanoma. Briefly: A375 fragment xenograft model, antitumor efficacy. As to conditions: MC3181 i.v. 8mg/kg/d q1dx5 three weeks. The class given is in vivo, mice. On the procedure: With regard to the in vivo fragment tumor model, A375 cells were injected (1×10^7) subcutaneously (s.c.) into the right flank of an athymic Nude-Foxn1nu female mouse, and the established primary tumor was then removed and cut into fragments (2–3 mm diameter) and implanted s.c. into recipient mice. Animals were randomly divided in groups of 7 mice and treatment was initiated when a tumor volume of 0.12 ± 0.01 cm^3 (mean ± SEM) was reached.
The reference drug temozolomide, dissolved in DMSO/PBS 1:1 to a final concentration of 10 mg/ml, was administered i.p. q1dx5 at a dose of 100mg/kg/day.
Primary tumor growth was determined for all animals by caliper measurement (minor and major axis length), three times per week, until they were sacrificed. Primary tumor volume was determined using the following equation: V (cm^3)=(α^2×β)/2 (Eq. 3)
The efficacy of the treatment was also analyzed by calculation of the percentage of Increase in Life Span (% ILS), since this analysis gives an evidence of clinical potency. Survival endpoint for each animal was fixed at the day when tumor volume reached 1.0 cm^3 (A375) or 0.4 cm^3 (SK23-MEL and G-361), and data were used to plot the relative Kaplan-Meier curves. Treatment efficacy was then evaluated by comparing the Median Survival Time (MST) of treated group with the MST of control group, and expressed as percentage of ILS: % ILS=[100×(MSTtreated group)/(MSTcontrol group)]−100 (Eq. 4)
Treatment was considered effective when % ILS > 20%.

Data set [14] has as its system mice bearing human tumor xenografts. The data set can be described thus: Toxicity in tumor-bearing mice (net BW variation, macroscopic autopsy). The class given is in vivo. As to conditions: during treatment, MC3181 8 mg/kg/day, TMZ 100 mg/kg/day i.p. On the procedure: Toxicity was also evaluated in tumor-bearing mice on the basis of macroscopic autopsy findings, mainly in terms of alteration to the size and color of vital organs, and net BW reduction. The percentage of net BW variation, between the first day of treatment and sacrifice day (or day of interest), was evaluated according to the following equation: % net BW variation =net BW at observation day −net BW at first day of treatment/net BW at first day of treatment ×100 (Eq. 2)

One may read the solubility as the dissolved amount per volume that the medium holds. High values mean much dissolved substance, low ones little dissolved substance. Usually IC50 stands for the concentration that gives 50% inhibition. Lower therefore signals inhibition by little substance.

T1 sequence (P09211 2-210 limits assumed): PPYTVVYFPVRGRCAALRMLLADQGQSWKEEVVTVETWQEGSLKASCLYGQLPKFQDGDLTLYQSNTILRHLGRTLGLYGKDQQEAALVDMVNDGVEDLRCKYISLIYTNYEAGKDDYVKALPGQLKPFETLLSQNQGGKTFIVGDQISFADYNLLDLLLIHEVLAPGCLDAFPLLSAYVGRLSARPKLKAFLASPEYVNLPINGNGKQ

Regarding `O=[N+]([O-])c1ccc(SCCOCCO)c2nonc12` [MC3165, 2-(2-((7-nitrobenzo[c][1,2,5]oxadiazol-4-yl)thio)ethoxy)ethan-1-ol], the solubility in data set [1] (potassium phosphate buffer, pH 7.4, 0.1 M K-Phosphate buffer) was 2000 µM (≈ 571 µg/mL); in data set [1] (sodium acetate buffer, pH 2.0, 0.1 M Na-Acetate Buffer), 2000 µM (≈ 571 µg/mL); in data set [1] (sodium acetate buffer, pH 5.0, 0.1 M Na-Acetate Buffer), 1900 µM (≈ 542 µg/mL). Further, the “decrease of the absorbance value at 430 nm after addition of excess GSH” value in [2] is listed as “less than 15%”. Besides, in data set [3], the “stability of the σ-complex, rank order” value is on record as “NBDHEX > MC3181 > MC3165”. For the same compound, the IC50 worked out at 51 ± 8 nM in [4] and 4000 ± 200 nM in data set [5] (GSTP1-1 20 nM). Moreover, the “Selectivity Index IC50GSTP1-1/IC50GSTM2-2” value in data set [5] is on record as 78.

Turning to `O=[N+]([O-])c1ccc(SCCCCCCO)c2nonc12` [NBDHEX, 6-((7-nitrobenzo[c][1,2,5]oxadiazol-4-yl)thio)hexan-1-ol, reference compound], the IC50 is not above 10 nM in data set [4]; 1190 ± 90 nM in data set [6]; 1800 ± 120 nM in data set [7]; 550 ± 30 nM in data set [8]; 1420 ± 50 nM in data set [9]; 1450 ± 140 nM in data set [10].

Regarding `Oc1c2ccccc2c2c3c(cccc13)N=N2` [SP600125, reference compound], the “reduction of the MC3181-elicited increase in the number of cells in Sub-G1 phase” value in [11] is given as “about 40%”. Besides, in data set [12], the “reduction of the MC3181-elicited increase of caspase-3 activity” value is “about 50%”.

As for `Cn1nnc2c(C(N)=O)ncn2c1=O` [TMZ, temozolomide, reference compound], the “%ILS” value in data set [13] (TMZ i.p. 100 mg/kg/d q1dx5) is 35%. For the same compound, the tumor growth result in data set [13] (TMZ i.p. 100 mg/kg/d q1dx5, from day 13 onward, P < 0.05) was “significantly delayed tumor growth”. Also, the “decrease in BW” value in [14] is approximately 15%.
